Experimental data: paper PMC2721768 (Purinergic Signalling, 2008)
Marks after values point to notes of the source that are not given here.

How the values were obtained:
[1] = target: T1, rat NTPDase1 (Rattus norvegicus, UniProt P97687); assay: Inhibition of rat NTPDase1; conditions: for percent inhibition at 1 mM NTPDase1 / inhibition of rat NTPDase1 (in words): rat NTPDase1; for percent inhibition at 1 mM NTPDase1: 1 mM compound, ATP 400 μM; for inhibition at 1000 µM: read-out: percent inhibition at 1 mM NTPDase1
T1 sequence (P97687 1-511): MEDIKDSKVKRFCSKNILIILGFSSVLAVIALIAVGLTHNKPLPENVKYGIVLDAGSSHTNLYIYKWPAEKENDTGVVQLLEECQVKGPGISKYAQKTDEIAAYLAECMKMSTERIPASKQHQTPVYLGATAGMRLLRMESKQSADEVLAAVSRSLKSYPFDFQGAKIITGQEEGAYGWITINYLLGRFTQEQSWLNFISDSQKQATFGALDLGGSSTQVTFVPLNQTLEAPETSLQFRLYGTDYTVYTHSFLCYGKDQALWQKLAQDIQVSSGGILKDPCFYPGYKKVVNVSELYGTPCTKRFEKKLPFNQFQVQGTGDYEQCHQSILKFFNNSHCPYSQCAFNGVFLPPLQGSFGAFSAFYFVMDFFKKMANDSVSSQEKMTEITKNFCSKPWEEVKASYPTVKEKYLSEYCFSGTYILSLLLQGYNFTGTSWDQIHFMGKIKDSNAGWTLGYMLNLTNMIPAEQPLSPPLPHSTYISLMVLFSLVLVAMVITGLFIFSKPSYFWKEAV

[2] = target: T2, rat NTPDase2 (Rattus norvegicus, UniProt O35795); assay: Inhibition of rat NTPDase2; conditions: for inhibition at 1000 µM: read-out: percent inhibition at 1 mM NTPDase2
T2 sequence (O35795 1-495): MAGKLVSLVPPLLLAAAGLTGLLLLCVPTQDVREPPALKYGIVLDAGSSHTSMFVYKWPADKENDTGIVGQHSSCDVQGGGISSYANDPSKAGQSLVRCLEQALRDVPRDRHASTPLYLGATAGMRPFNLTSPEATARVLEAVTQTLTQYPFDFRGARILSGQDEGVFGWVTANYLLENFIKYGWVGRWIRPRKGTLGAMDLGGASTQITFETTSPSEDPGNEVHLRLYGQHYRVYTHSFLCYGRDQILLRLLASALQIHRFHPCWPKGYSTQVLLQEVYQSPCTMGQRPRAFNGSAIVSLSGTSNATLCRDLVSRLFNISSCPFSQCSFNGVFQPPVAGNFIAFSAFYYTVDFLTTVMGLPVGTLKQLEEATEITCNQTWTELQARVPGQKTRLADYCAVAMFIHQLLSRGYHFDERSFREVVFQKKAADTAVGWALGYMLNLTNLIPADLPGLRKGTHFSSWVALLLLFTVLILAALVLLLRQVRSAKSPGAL

[3] = target: T3, rat NTPDase3 (Rattus norvegicus, UniProt A6I415); assay: Inhibition of rat NTPDase3; conditions: for inhibition at 1000 µM: read-out: percent inhibition at 1 mM NTPDase3
T3 sequence (A6I415 1-529): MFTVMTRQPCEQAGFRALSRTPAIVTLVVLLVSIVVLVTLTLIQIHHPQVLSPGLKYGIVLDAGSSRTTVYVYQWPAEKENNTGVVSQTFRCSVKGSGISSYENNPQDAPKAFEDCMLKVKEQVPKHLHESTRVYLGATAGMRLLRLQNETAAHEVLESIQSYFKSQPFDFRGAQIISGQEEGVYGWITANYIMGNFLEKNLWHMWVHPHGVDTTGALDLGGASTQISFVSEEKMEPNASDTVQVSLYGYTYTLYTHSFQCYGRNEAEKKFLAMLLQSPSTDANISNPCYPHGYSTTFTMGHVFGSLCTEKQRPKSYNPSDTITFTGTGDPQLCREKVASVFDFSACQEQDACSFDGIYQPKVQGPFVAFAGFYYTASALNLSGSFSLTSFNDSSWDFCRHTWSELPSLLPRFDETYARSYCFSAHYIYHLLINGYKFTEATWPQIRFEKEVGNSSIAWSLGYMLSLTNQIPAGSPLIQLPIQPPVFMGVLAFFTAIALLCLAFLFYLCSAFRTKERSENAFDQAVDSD

[4] = test system: ectonucleotidase activity in rat vas deferens tissue; conditions: at 100 μM; cited from earlier work
[5] = test system: P2Y2; conditions: read-out: IC50 P2Y2 antagonist; cited from earlier work
[6] = test system: NTPDases1, 2, and 3; conditions: rat NTPDase1, 2 and 3
[7] = Solubility and stability under the test conditions; assay type: physicochemical; conditions: 3 mM in HEPES assay buffer (diluted from 10 mM aqueous solution)
[8] = rat NTPDase3, inhibitor 10, 20, and 30 μM

SMILES | inhibition at 1000 µM [1] [%] | inhibition at 1000 µM [2] [%] | inhibition at 1000 µM [3] [%] | other results
Cc1ccccc1Nc1cc(S(=O)(=O)O)c(N)c2c1C(=O)c1ccccc1C2=O [Compound 12] |  |  |  | percent inhibition at 1 mM NTPDase1 [1]: (25%)
Nc1c(S(=O)(=O)Oc2ccccc2[N+](=O)[O-])cc(Br)c2c1C(=O)c1ccccc1C2=O [Compound 28, 1-Amino-4-bromoanthraquinone-2-sulfonic acid 2-nitrophenyl ester] | 0 | 0 | 0 | 
Nc1c(S(=O)(=O)Oc2ccc([N+](=O)[O-])cc2)cc(Br)c2c1C(=O)c1ccccc1C2=O [Compound 30, 1-Amino-4-bromoanthraquinone-2-sulfonic acid 4-nitrophenyl ester] | 0 | 0 | 0 | 
Cc1cc(Nc2ccccc2)c2c(c1N)C(=O)c1ccccc1C2=O [Compound 23, 1-Amino-2-methyl-4-phenylaminoanthraquinone] | 0 | 0 | 0 | 
Nc1c(S(=O)(=O)O)cc(Nc2ccccc2)c2c1C(=O)c1ccccc1C2=O [Compound 11] |  |  |  | inhibition of ATP degradation in rat vas deferens tissue [4]: inactive
CCOc1ccccc1Nc1cc(S(=O)(=O)O)c(N)c2c1C(=O)c1ccccc1C2=O [Compound 17] |  |  |  | percent inhibition at 1 mM NTPDase1 [1]: (17%)
Nc1c(S(=O)(=O)O)cc(Nc2ccc3ccccc3c2)c2c1C(=O)c1ccccc1C2=O [Compound 21, Sodium 1-amino-4-(2-naphthylamino)-9,10-dioxo-9,10-dihydroanthracene 2-sulfonate] |  |  |  | Ki [3]: 2.22 ± 1.03 µM
CC(=O)Nc1ccc(Nc2cc(S(=O)(=O)O)c(N)c3c2C(=O)c2ccccc2C3=O)cc1 [Compound 19] |  |  |  | IC50 [5]: 6 to 12 µM; NTPDase inhibitory activity (in words) [6]: nearly inactive; percent inhibition at 1 mM NTPDase1 [1]: (15%)
COc1ccc(CCNc2cc(S(=O)(=O)O)c(N)c3c2C(=O)c2ccccc2C3=O)cc1OC [Compound 22, Sodium 1-amino-4-(3,4-dimethoxyphenethylamino)-9,10-dioxo-9,10-dihydroanthracene 2-sulfonate] |  |  |  | Ki [1]: 173 ± 6 µM; Ki [2]: 54.1 ± 6.8 µM; Ki [3]: 23.4 ± 0.4 µM
Nc1c(S(=O)(=O)Oc2cccc([N+](=O)[O-])c2)cc(Br)c2c1C(=O)c1ccccc1C2=O [Compound 29, 1-Amino-4-bromoanthraquinone-2-sulfonic acid 3-nitrophenyl ester] | 0 | 0 | 0 | 
Cc1cccc(Nc2cc(C)c(N)c3c2C(=O)c2ccccc2C3=O)c1 [Compound 24, 1-Amino-2-methyl-4-(3-methylphenylamino)anthraquinone] | 0 | 0 | 0 | 
Nc1c(S(=O)(=O)[O-])cc(Nc2cccc3ccccc23)c2c1C(=O)c1ccccc1C2=O.[Na+] [Compound 20, Sodium 1-amino-4-(1-naphthylamino)-9,10-dioxo-9,10-dihydroanthracene 2-sulfonate] | 0 | 0 |  | inhibition of rat NTPDase1 (in words) [1]: not inhibitory; inhibition of rat NTPDase2 (in words) ([2]; rat NTPDase2): not inhibitory
Cc1ccc(Nc2cc(C)c(N)c3c2C(=O)c2ccccc2C3=O)cc1 [Compound 25, 1-Amino-2-methyl-4-(4-methylphenylamino)anthraquinone] | 0 | 0 | 0 | 
Cc1cc(Nc2cccc3ccccc23)c2c(c1N)C(=O)c1ccccc1C2=O [Compound 26, 1-Amino-2-methyl-4-(1-naphthylamino)anthraquinone] | 0 | 0 | 0 | 
COS(=O)(=O)c1cc(Br)c2c(c1N)C(=O)c1ccccc1C2=O [Compound 27, 1-Amino-4-bromoanthraquinone-2-sulfonic acid methyl ester] | 0 | 0 | 0 | 
Nc1c(S(=O)(=O)Nc2ccccc2)cc(Br)c2c1C(=O)c1ccccc1C2=O [Compound 31, 1-Amino-4-bromoanthraquinone-2-sulfonic acid phenyl amide] | 0 | 0 | 0 | 
Nc1c(S(=O)(=O)NCc2ccccc2)cc(Br)c2c1C(=O)c1ccccc1C2=O [Compound 32, 1-Amino-4-bromoanthraquinone-2-sulfonic acid benzylamide] | 0 | 0 | 0 | 
COc1ccccc1Nc1cc(S(=O)(=O)O)c(N)c2c1C(=O)c1ccccc1C2=O [Compound 16] |  |  |  | IC50 [5]: ~9 µM; inhibition of rat NTPDase1 (in words) [1]: weak; percent inhibition at 1 mM NTPDase1 [1]: (57%)
Nc1c(S(=O)(=O)NCCc2ccccc2)cc(Br)c2c1C(=O)c1ccccc1C2=O [Compound 33, 1-Amino-4-bromoanthraquinone-2-sulfonic acid phenethylamide] | 0 | 0 | 0 | 
Cc1cccc(Nc2cc(S(=O)(=O)O)c(N)c3c2C(=O)c2ccccc2C3=O)c1C [Compound 14] |  |  |  | percent inhibition at 1 mM NTPDase1 [1]: (67%)^b
Nc1c(S(=O)(=O)O)cc(Nc2ccc(Cl)cc2)c2c1C(=O)c1ccccc1C2=O [Compound 18, 1-Amino-2-sulfo-4-p-chloroanilinoanthraquinone] |  |  |  | time until precipitation (in words) [7]: short period of time; Ki [3]: 16.4 ± 1.6 µM; effect on Vmax value of NTPDase3 [3, 8]: not affected; mechanism of inhibition (NTPDase3 kinetics, Lineweaver-Burk plot) [3, 8]: competitive; effect on Km value of NTPDase3 ([3]; rat NTPDase3, with increasing concentration of inhibitor (10, 20, 30 μM)): increased
